The NIST ThermoML archive (doi:10.1021/je049662k)
Numbers after ± are expanded uncertainties.

Conditions: Liquid, Falling or rolling sphere viscometry

Cc1ccccc1 [toluene]
viscosity [mPa·s]
Conditions	303.15 K	313.15 K	323.15 K	333.15 K	343.15 K	353.15 K
100 kPa	0.525 ± 0.021	0.469 ± 0.019	0.422 ± 0.017	0.382 ± 0.016	0.349 ± 0.014	0.32 ± 0.013
1000 kPa	0.526 ± 0.021	0.474 ± 0.019	0.427 ± 0.017	0.386 ± 0.016	0.351 ± 0.014	0.32 ± 0.013
5000 kPa	0.544 ± 0.022	0.487 ± 0.02	0.439 ± 0.018	0.397 ± 0.016	0.362 ± 0.015	0.331 ± 0.013
10000 kPa	0.568 ± 0.023	0.509 ± 0.021	0.458 ± 0.019	0.413 ± 0.017	0.376 ± 0.015	0.344 ± 0.014
15000 kPa	0.593 ± 0.024	0.529 ± 0.022	0.476 ± 0.019	0.43 ± 0.018	0.391 ± 0.016	0.359 ± 0.015
20000 kPa	0.617 ± 0.025	0.55 ± 0.022	0.495 ± 0.02	0.446 ± 0.018	0.406 ± 0.017	0.373 ± 0.015
25000 kPa	0.64 ± 0.026	0.57 ± 0.023	0.514 ± 0.021	0.463 ± 0.019	0.421 ± 0.017	0.387 ± 0.016
30000 kPa	0.662 ± 0.027	0.59 ± 0.024	0.533 ± 0.022	0.48 ± 0.02	0.437 ± 0.018	0.401 ± 0.016
35000 kPa	0.685 ± 0.028	0.61 ± 0.025	0.552 ± 0.022	0.497 ± 0.02	0.453 ± 0.018	0.415 ± 0.017
40000 kPa	0.707 ± 0.029	0.63 ± 0.026	0.572 ± 0.023	0.515 ± 0.021	0.469 ± 0.019	0.429 ± 0.017
45000 kPa	0.729 ± 0.03	0.651 ± 0.027	0.592 ± 0.024	0.533 ± 0.022	0.485 ± 0.02	0.443 ± 0.018
50000 kPa	0.752 ± 0.031	0.671 ± 0.027	0.612 ± 0.025	0.551 ± 0.022	0.502 ± 0.02	0.458 ± 0.019
55000 kPa	0.774 ± 0.032	0.693 ± 0.028	0.633 ± 0.026	0.571 ± 0.023	0.52 ± 0.021	0.473 ± 0.019
60000 kPa	0.797 ± 0.032	0.715 ± 0.029	0.654 ± 0.027	0.59 ± 0.024	0.537 ± 0.022	0.488 ± 0.02

CCCCCCC [heptane]
viscosity [mPa·s]
Conditions	303.15 K	313.15 K	323.15 K	333.15 K	343.15 K	353.15 K
100 kPa	0.368 ± 0.015	0.33 ± 0.013	0.303 ± 0.012	0.273 ± 0.011	0.245 ± 0.01	0.231 ± 0.009
1000 kPa	0.371 ± 0.015	0.334 ± 0.014	0.306 ± 0.012	0.276 ± 0.011	0.247 ± 0.01	0.233 ± 0.01
5000 kPa	0.387 ± 0.016	0.348 ± 0.014	0.319 ± 0.013	0.289 ± 0.012	0.26 ± 0.011	0.246 ± 0.01
10000 kPa	0.408 ± 0.017	0.368 ± 0.015	0.336 ± 0.014	0.306 ± 0.013	0.277 ± 0.011	0.262 ± 0.011
15000 kPa	0.429 ± 0.018	0.388 ± 0.016	0.354 ± 0.014	0.323 ± 0.013	0.294 ± 0.012	0.278 ± 0.011
20000 kPa	0.45 ± 0.018	0.407 ± 0.017	0.371 ± 0.015	0.34 ± 0.014	0.31 ± 0.013	0.293 ± 0.012
25000 kPa	0.471 ± 0.019	0.427 ± 0.017	0.389 ± 0.016	0.357 ± 0.015	0.326 ± 0.013	0.307 ± 0.013
30000 kPa	0.492 ± 0.02	0.446 ± 0.018	0.406 ± 0.017	0.374 ± 0.015	0.341 ± 0.014	0.322 ± 0.013
35000 kPa	0.514 ± 0.021	0.465 ± 0.019	0.424 ± 0.017	0.39 ± 0.016	0.357 ± 0.015	0.336 ± 0.014
40000 kPa	0.535 ± 0.022	0.484 ± 0.02	0.442 ± 0.018	0.407 ± 0.017	0.372 ± 0.015	0.349 ± 0.014
45000 kPa	0.556 ± 0.023	0.503 ± 0.021	0.461 ± 0.019	0.423 ± 0.017	0.387 ± 0.016	0.361 ± 0.015
50000 kPa	0.578 ± 0.024	0.522 ± 0.021	0.479 ± 0.02	0.439 ± 0.018	0.402 ± 0.016	0.374 ± 0.015
55000 kPa	0.6 ± 0.024	0.542 ± 0.022	0.498 ± 0.02	0.456 ± 0.019	0.416 ± 0.017	0.386 ± 0.016
60000 kPa	0.622 ± 0.025	0.562 ± 0.023	0.517 ± 0.021	0.472 ± 0.019	0.431 ± 0.018	0.397 ± 0.016
